MIC data for 24 compounds are collected here from patent US6294527A, “Cephem compounds” (Zenyaku Kogyo Kabushiki Kaisha, priority 1996, dated 2001).

Converted amounts (≈) assume the structure as drawn. Counter-ions that a name gives are not always drawn. Like-named read-outs stand apart in the source and are kept apart here. Where only a bound is given, the exact number is not on record here.

The subject of experiment [1] is vancomycin-resistant enterococci (E. faecalis NCTC-12201). As to the kind of experiment: Agar plate dilution MIC, vancomycin-resistant enterococci E. faecalis NCTC-12201. Type of experiment: cell-based. As to conditions: Enterococcus faecalis. As for the experimental part:
(§1) Antibacterial test was performed in substantial accordance with agar plate dilution method based on Standard method of The Japan Society of Chemotherapy to determine minimum inhibitory concentration (MIC) of the respective test compounds against Staphylococcus aureus (S. aureus FDA 209P) and vancomycin-resistant enterococci (E. faecalis NCTC-12201). Also determined was MIC80 on clinically separated strains (27 strains) of MRSA. The inoculated amount was 10^6 CFU/ml and flomoxef (FMOX) and vancomycin (VCM) were used as controls.

In experiment [2] the test system is Staphylococcus aureus (S. aureus FDA 209P). As to the kind of experiment: Agar plate dilution MIC, Staphylococcus aureus FDA 209P. Type of experiment: cell-based. As to conditions: FDA209P, read-out: MIC S. aureus FDA 209P. On the procedure:
as §1

[3] abbreviates: NCTC12201, agar plate dilution, inoculum 10^6 CFU/ml, vancomycin-resistant, read-out: MIC E. faecalis NCTC-12201.
Where [4] appears, read: agar plate dilution, inoculum 10^6 CFU/ml.

By MIC is commonly meant the lowest concentration that inhibits growth of the organism. As for `CO[C@@]1(NC(=O)CSC(F)F)C(=O)N2C(C(=O)O)=C(CSc3nnnn3CCO)CO[C@@H]21` [FMOX, flomoxef, reference compound], the MIC was more than 100 µg/mL in experiment [1] (setting [3]) and 0.2 µg/mL (≈ 0.403 µM) in experiment [2] (setting [4]).

`CN[C@H](CC(C)C)C(=O)N[C@H]1C(=O)N[C@@H](CC(N)=O)C(=O)N[C@H]2C(=O)N[C@H]3C(=O)N[C@H](C(=O)N[C@H](C(=O)O)c4cc(O)cc(O)c4-c4cc3ccc4O)[C@H](O)c3ccc(c(Cl)c3)Oc3cc2cc(c3O[C@@H]2O[C@H](CO)[C@@H](O)[C@H](O)[C@H]2O[C@H]2C[C@](C)(N)[C@H](O)[C@H](C)O2)Oc2ccc(cc2Cl)[C@H]1O` [VCM, vancomycin, reference compound]: the MIC in experiment [1] (NCTC12201, read-out: MIC E. faecalis NCTC-12201) is more than 1000 µg/mL; in experiment [2], 0.78 µg/mL (≈ 0.538 µM).

`O=C(Cc1cccs1)N[C@@H]1C(=O)N2C(C(=O)O)=C(C=CSc3cc(=O)c4ccccc4s3)CS[C@H]12` [compound 1, 7-[2-(2-thienyl)acetamide]-3-[2-(4-oxo-4H-1-benzothiopyran-2-yl)thiovinyl]3-cephem-4-carboxylic acid]: the MIC in experiment [1] (setting [3]) was determined as 3.13 µg/mL (≈ 5.77 µM); in experiment [2] (setting [4]) it was 0.2 µg/mL (≈ 0.369 µM).

`O=C(Cc1cccs1)N[C@@H]1C(=O)N2C(C(=O)O)=C(C=CSc3cc(=O)c4ccc(F)cc4s3)CS[C@H]12` [compound 2, 7-[2-(2-thienyl)acetamide]-3-[2-(7-fluoro-4-oxo-4H-1-benzothiopyran-2-yl)thiovinyl]-3-cephem-4-carboxylic acid]: the minimal inhibitory concentration (MIC) in experiment [1] (setting [3]) was found to be 0.78 µg/mL (≈ 1.39 µM); in experiment [2] (setting [4]), 0.05 µg/mL (≈ 0.0892 µM).

As for `COc1ccc2c(=O)cc(SC=CC3=C(C(=O)O)N4C(=O)[C@@H](NC(=O)Cc5cccs5)[C@H]4SC3)sc2c1` [compound 4, 7-[2-(2-thienyl)acetamide]-3-[2-(7-methoxy-4-oxo-4H-1-benzothiopyran-2-yl)thiovinyl]-3-cephem-4-carboxylic acid], the figures for the MIC in experiment [1] (setting [3]) and in experiment [2] (setting [4]) were 1.56 µg/mL (≈ 2.72 µM) and 0.1 µg/mL (≈ 0.175 µM), respectively.

Turning to `O=C(Cc1cccs1)N[C@@H]1C(=O)N2C(C(=O)O)=C(C=CSc3cc(=O)c4c(C(F)(F)F)cccc4s3)CS[C@H]12` [compound 5, 7-[2-(2-thienyl)acetamide]-3-[2-(4-oxo-5-trifluoromethyl-4H-1-benzothiopyran-2-yl)thiovinyl]-3-cephem-4-carboxylic acid], the MIC in experiment [1] (setting [3]) was found to be 1.56 µg/mL (≈ 2.55 µM); in experiment [2] (setting [4]), 0.05 µg/mL (≈ 0.0819 µM).

Regarding `O=C(Cc1cccs1)N[C@@H]1C(=O)N2C(C(=O)O)=C(C=CSc3cc(=O)c4cc(F)c(F)c(F)c4s3)CS[C@H]12` [compound 7, 7-[2-(2-thienyl)acetamide]-3-[2-(6,7,8-trifluoro-4-oxo-4H-1-benzothiopyran-2-yl)thiovinyl]-3-cephem-4-carboxylic acid], the MIC in experiment [1] (setting [3]) came to 0.78 µg/mL (≈ 1.31 µM); in experiment [2] (setting [4]) it was 0.025 µg/mL (≈ 0.0419 µM).

Regarding `O=C(Cc1cccs1)N[C@@H]1C(=O)N2C(C(=O)O)=C(C=CSc3cc(=O)c4ccc(O)cc4s3)CS[C@H]12` [compound 8, 7-[2-(2-thienyl)acetamide]-3-[2-(7-hydroxy-4-oxo-4H-1-benzothiopyran-2-yl)thiovinyl]-3-cephem-4-carboxylic acid], the MIC in experiment [1] (setting [3]) came to 12.5 µg/mL (≈ 22.4 µM); in experiment [2] (setting [4]) it was 0.2 µg/mL (≈ 0.358 µM).

Consider `O=C(Cc1cccs1)N[C@@H]1C(=O)N2C(C(=O)O)=C(C=CSc3cc(=O)c4occc4s3)CS[C@H]12` [compound 9, 7-[2-(2-thienyl)acetamide]-3-[2-(7-oxo-7H-thiopyrano[3,2-b]furan-5-yl)thiovinyl]-3-cephem-4-carboxylic acid], for which the MIC in experiment [1] (setting [3]) is 3.13 µg/mL (≈ 5.88 µM); in experiment [2] (setting [4]), 0.025 µg/mL (≈ 0.0469 µM).

Turning to `O=C(Cc1cccs1)N[C@@H]1C(=O)N2C(C(=O)O)=C(C=CSc3cc(=O)c4ccc(N5CCOCC5)cc4s3)CS[C@H]12` [compound 10, 7-[2-(2-thienyl)acetamide]-3-[2-(7-morpholino-4-oxo-4H-1-benzothiopyran-2-yl)thiovinyl]-3-cephem-4-carboxylic acid], the results for the MIC in experiment [1] (setting [3]) and in experiment [2] (setting [4]) were 6.25 µg/mL (≈ 9.96 µM) and 0.05 µg/mL (≈ 0.0796 µM), respectively.

As to `Nc1nc(/C(=N/O)C(=O)N[C@@H]2C(=O)N3C(C(=O)O)=C(C=CSc4cc(=O)c5ccccc5s4)CS[C@H]23)cs1` [compound 11, sodium 7-[2-hydroxyimino-2-(2-aminothiazol-4-yl)acetamide]-3-[2-(4-oxo-4H-1-benzothiopyran-2-yl)thiovinyl]-3-cephem-4-carbonate], the MIC amounted to 1.56 µg/mL in experiment [1] (setting [3]) and 0.1 µg/mL in experiment [2] (setting [4]).

For the compound `Nc1nc(/C(=N/O)C(=O)N[C@@H]2C(=O)N3C(C(=O)O)=C(C=CSc4cc(=O)c5occc5s4)CS[C@H]23)cs1` [compound 17, 7-[2-hydroxyimino-2-(2-aminothiazol-4-yl)acetamide]-3-[2-(7-oxo-7H-thiopyrano[3,2-b]furan-5-yl)thiovinyl]-3-cephem-4-carboxylic acid], the MIC in experiment [1] (setting [3]) turned out to be 6.25 µg/mL (≈ 10.8 µM); in experiment [2] (setting [4]) it was 0.39 µg/mL (≈ 0.675 µM).

`Nc1nc(/C(=N/O)C(=O)N[C@@H]2C(=O)N3C(C(=O)O)=C(C=CSc4cc(=O)c5ccc(F)cc5s4)CS[C@H]23)cs1` [compound 18, 7-[2-hydroxyimino-2-(2-aminothiazol-4-yl)acetamide]-3-[2-(7-fluoro-4-oxo-4H-1-benzothiopyran-2-yl)thiovinyl]-3-cephem-4-carboxylic acid]: the MIC in experiment [1] (setting [3]) worked out at 6.25 µg/mL (≈ 10.3 µM); in experiment [2] (setting [4]), 0.39 µg/mL (≈ 0.644 µM).

As to `O=C(Cc1cccs1)N[C@@H]1C(=O)N2C(C(=O)O)=C(C=CSc3cc(=O)c4ccc(N5CCCCC5)cc4s3)CS[C@H]12` [compound 19, 7-[2-(2-thienyl)acetamide]-3-[2-(4-oxo-7-piperidino-4H-1-benzothiopyran-2-yl)thiovinyl]-3-cephem-4-carboxylic acid], the MIC in experiment [1] (setting [3]) was determined as 3.13 µg/mL (≈ 5 µM); in experiment [2] (setting [4]), 0.1 µg/mL (≈ 0.16 µM).

In the case of `O=C(Cc1cccs1)N[C@@H]1C(=O)N2C(C(=O)O)=C(C=CSc3cc(=O)c4sccc4s3)CS[C@H]12` [compound 20, 7-[2-(2-thienyl)acetamide]-3-[2-(7-oxo-7H-thieno[3,2-b]thiopyran-5-yl)thiovinyl]-3-cephem-4-carboxylic acid], the figures for the MIC in experiment [1] (setting [3]) and in experiment [2] (setting [4]) were 1.56 µg/mL (≈ 2.84 µM) and 0.025 µg/mL (≈ 0.0456 µM), respectively.

As for `O=C(Cc1cccs1)N[C@@H]1C(=O)N2C(C(=O)O)=C(C=CSc3cc(=O)c4cc(Cl)sc4s3)CS[C@H]12` [compound 21, 7-[2-(2-thienyl)acetamide]-3-[2-(2-chloro-4-oxo-4H-thieno[2,3-b]thiopyran-6-yl)thiovinyl]-3-cephem-4-carboxylic acid], the results for the MIC in experiment [1] (setting [3]) and in experiment [2] (setting [4]) were 1.56 µg/mL (≈ 2.68 µM) and 0.025 µg/mL (≈ 0.0429 µM), respectively.

In the case of `O=C(Cc1cccs1)N[C@@H]1C(=O)N2C(C(=O)O)=C(C=CSc3cc(=O)c4ccc(N5CCNCC5)cc4s3)CS[C@H]12` [compound 22, 7-[2-(2-thienyl)acetamide]-3-[2-(4-oxo-7-(piperazin-1-yl)-4H-1-benzothiopyran-2-yl)thiovinyl]-3-cephem-4-carboxylic acid.hydrochloride], the results for the MIC in experiment [1] (setting [3]) and in experiment [2] (setting [4]) were 6.25 µg/mL and not above 0.006 µg/mL, respectively.

As for `Nc1nc(/C(=N/O)C(=O)N[C@@H]2C(=O)N3C(C(=O)O)=C(C=CSc4cc(=O)c5sccc5s4)CS[C@H]23)cs1` [compound 23, 7-[2-hydroxyimino-2-(2-aminothiazol-4-yl)acetamide]-3-[2-(7-oxo-7H-thieno[3,2-b]thiopyran-5-yl)thiovinyl]-3-cephem-4-carboxylic acid], the MIC in experiment [1] (setting [3]) came out at 3.13 µg/mL (≈ 5.27 µM); in experiment [2] (setting [4]), 0.1 µg/mL (≈ 0.168 µM).

Regarding `O=C(Cc1cccs1)N[C@@H]1C(=O)N2C(C(=O)O)=C(C=CSc3cc(=O)c4nccnc4s3)CS[C@H]12` [compound 24, 7-[2-(2-thienyl)acetamide]-3-[2-(8-oxo-8H-thiopyrano[2,3-b]pyrazin-6-yl)thiovinyl]-3-cephem-4-carboxylic acid], the MIC in experiment [1] (setting [3]) is 3.13 µg/mL (≈ 5.75 µM); in experiment [2] (setting [4]) it was not above 0.006 µg/mL.

As to `O=C(Cc1cccs1)N[C@@H]1C(=O)N2C(C(=O)O)=C(C=CSc3sc4ccsc4c(=O)c3Br)CS[C@H]12` [compound 25, 7-[2-(2-thienyl)acetamide]-3-[2-(6-bromo-7-oxo-7H-thieno[3,2-b]thiopyran-5-yl)thiovinyl]-3-cephem-4-carboxylic acid], the MIC turned out to be 0.78 µg/mL (≈ 1.24 µM) in experiment [1] (setting [3]) and 0.013 µg/mL (≈ 0.0207 µM) in experiment [2] (setting [4]).

With `O=C(Cc1cccs1)N[C@@H]1C(=O)N2C(C(=O)O)=C(C=CSc3cc(=O)c4scc([N+](=O)[O-])c4s3)CS[C@H]12` [compound 26, 7-[2-(2-thienyl)acetamide]-3-[2-(3-nitro-7-oxo-7H-thieno[3,2-b]thiopyran-5-yl)thiovinyl]-3-cephem-4-carboxylic acid], the MIC was 1.56 µg/mL (≈ 2.63 µM) in experiment [1] (setting [3]) and 0.025 µg/mL (≈ 0.0421 µM) in experiment [2] (setting [4]).

Turning to `O=C(Cc1ccccc1)N[C@@H]1C(=O)N2C(C(=O)O)=C(C=CSc3cc(=O)c4ccccc4s3)CS[C@H]12` [compound 27, 7-(2-phenylacetamide)-3-[2-(4-oxo-4H-1-benzothiopyran-2-yl)thiovinyl]-3-cephem-4-carboxylic acid], the MIC was 3.13 µg/mL (≈ 5.83 µM) in experiment [1] (setting [3]) and 0.025 µg/mL (≈ 0.0466 µM) in experiment [2] (setting [4]).

Turning to `N=C(N)SCc1ccc2c(=O)cc(SC=CC3=C(C(=O)O)N4C(=O)[C@@H](NC(=O)Cc5cccs5)[C@H]4SC3)sc2c1` [compound 28, 7-[2-(2-thienyl)acetamide]-3-[2-(7-isothiuroniummethyl-4-oxo-4H-1-benzothiopyran-2-yl)thiovinyl]-3-cephem-4-carboxylic acid.formate], the MIC in experiment [1] (setting [3]) is 6.25 µg/mL; in experiment [2] (setting [4]) it was 0.0254 µg/mL.

As to `O=C(Cc1cccs1)N[C@@H]1C(=O)N2C(C(=O)O)=C(C=CSc3cc(=O)c4cccnc4s3)CS[C@H]12` [compound 30, 7-[2-(2-thienyl)acetamide]-3-[2-(4-oxo-4H-thiopyrano[2,3-b]pyridin-2-yl)thiovinyl]-3-cephem-4-carboxylic acid], the MIC in experiment [1] (setting [3]) is 6.25 µg/mL (≈ 11.5 µM); in experiment [2] (setting [4]), not above 0.006 µg/mL.
